“And” between values parts separate entries of the source, which are not always exact repeats. Equal entries are not always repeated. Toxic doses and inconclusive results are not listed.
System: BDF1 mice, L1210 leukemia sc, survival T/C
Assay: NCI In Vivo Anticancer Drug Screen. Data for tumor model L1210 Leukemia (subcutaneous) in B6D2F1 (BDF1) mice
Conditions: endpoint: median survival time, higher = longer survival
Procedure, shortened: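 Tumors were transplanted into mice, the animals were treated with compound, survival or tumor size was then measured, and treated values were divided by vehicle-control values.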

## N=c1ccn2c(n1)OC1C(O)C(CO)OC12 (stereo not given)
dose: 9.38 mg/kg/injection, schedule: Q03HX024 (sc), vehicle: water
  T/C: 190 % of control
dose: 18.75 mg/kg/injection, schedule: Q03HX024 (sc), vehicle: water
  T/C: 200 % of control
dose: 25.0 mg/kg/injection, schedule: Q01DX009 (sc), vehicle: water
  T/C: 203 % of control and 170 % of control
dose: 25.0 mg/kg/injection, schedule: Q## X009 (sc), vehicle: water
  T/C: 203 % of control and 172 % of control
dose: 37.5 mg/kg/injection, schedule: Q01DX008 (sc), vehicle: water
  T/C: 227 % of control and 228 % of control
dose: 37.5 mg/kg/injection, schedule: Q01DX009 (sc), vehicle: water
  T/C: 180 % of control
dose: 37.5 mg/kg/injection, schedule: Q03HX024 (sc), vehicle: water
  T/C: 205 % of control
dose: 50.0 mg/kg/injection, schedule: Q01DX009 (sc), vehicle: water
  T/C: 184 % of control [middle of 4 runs]
dose: 50.0 mg/kg/injection, schedule: Q## X009 (sc), vehicle: water
  T/C: 214 % of control and 188 % of control
dose: 65.0 mg/kg/injection, schedule: Q01DX009 (sc), vehicle: water
  T/C: 191 % of control
dose: 75.0 mg/kg/injection, schedule: Q01DX008 (sc), vehicle: water
  T/C: 228 % of control and 233 % of control
dose: 75.0 mg/kg/injection, schedule: Q01DX009 (oral), vehicle: water
  T/C: 180 % of control
dose: 75.0 mg/kg/injection, schedule: Q01DX009 (sc), vehicle: water
  T/C: 203 % of control and 190 % of control
dose: 75.0 mg/kg/injection, schedule: Q03HX024 (sc), vehicle: water
  T/C: 220 % of control
dose: 75.0 mg/kg/injection, schedule: Q## X009 (sc), vehicle: water
  T/C: 203 % of control
dose: 100.0 mg/kg/injection, schedule: Q01DX009 (ip), vehicle: saline
  T/C: 168 % of control and 172 % of control
dose: 100.0 mg/kg/injection, schedule: Q01DX009 (ip), vehicle: water
  T/C: 205 % of control
dose: 100.0 mg/kg/injection, schedule: Q01DX009 (sc), vehicle: water
  T/C: 206 % of control [middle of 4 runs]
dose: 100.0 mg/kg/injection, schedule: Q## X009 (sc), vehicle: water
  T/C: 222 % of control and 211 % of control
dose: 108.0 mg/kg/injection, schedule: Q01DX009 (sc), vehicle: water
  T/C: 183 % of control
dose: 108.0 mg/kg/injection, schedule: Q01DX014 (sc), vehicle: water
  T/C: 210 % of control
dose: 108.0 mg/kg/injection, schedule: Q01DX015 (sc), vehicle: water
  T/C: 194 % of control and 200 % of control
dose: 150.0 mg/kg/injection, schedule: Q01DX008 (sc), vehicle: water
  T/C: 247 % of control and 250 % of control
dose: 150.0 mg/kg/injection, schedule: Q01DX009 (oral), vehicle: water
  T/C: 175 % of control
dose: 150.0 mg/kg/injection, schedule: Q01DX009 (sc), vehicle: water
  T/C: 233 % of control and 200 % of control
dose: 150.0 mg/kg/injection, schedule: Q03HX008 (sc), vehicle: water
  T/C: 150 % of control
dose: 150.0 mg/kg/injection, schedule: Q03HX024 (sc), vehicle: water
  T/C: 210 % of control
dose: 150.0 mg/kg/injection, schedule: Q## X009 (sc), vehicle: water
  T/C: 233 % of control
dose: 180.0 mg/kg/injection, schedule: Q01DX009 (sc), vehicle: water
  T/C: 207 % of control
dose: 180.0 mg/kg/injection, schedule: Q01DX014 (sc), vehicle: water
  T/C: 253 % of control
dose: 180.0 mg/kg/injection, schedule: Q01DX015 (sc), vehicle: water
  T/C: 222 % of control and 223 % of control
dose: 200.0 mg/kg/injection, schedule: Q01DX009 (ip), vehicle: saline
  T/C: 180 % of control and 190 % of control
dose: 200.0 mg/kg/injection, schedule: Q01DX009 (ip), vehicle: water
  T/C: 227 % of control
dose: 200.0 mg/kg/injection, schedule: Q01DX009 (sc), vehicle: water
  T/C: 236 % of control [middle of 4 runs]
dose: 200.0 mg/kg/injection, schedule: Q## X009 (sc), vehicle: water
  T/C: 247 % of control and 238 % of control
dose: 300.0 mg/kg/injection, schedule: Q01DX001 (sc), vehicle: water
  T/C: 120 % of control
dose: 300.0 mg/kg/injection, schedule: Q01DX008 (sc), vehicle: water
  T/C: 235 % of control and 238 % of control
dose: 300.0 mg/kg/injection, schedule: Q01DX009 (ip), vehicle: saline
  T/C: 202 % of control and 209 % of control
dose: 300.0 mg/kg/injection, schedule: Q01DX009 (oral), vehicle: water
  T/C: 195 % of control
dose: 300.0 mg/kg/injection, schedule: Q01DX009 (sc), vehicle: water
  T/C: 180 % of control and 183 % of control (2×)
dose: 300.0 mg/kg/injection, schedule: Q01DX014 (sc), vehicle: water
  T/C: 239 % of control
dose: 300.0 mg/kg/injection, schedule: Q01DX015 (sc), vehicle: water
  T/C: 227 % of control and 231 % of control
dose: 300.0 mg/kg/injection, schedule: Q03HX008 (sc), vehicle: water
  T/C: 155 % of control
dose: 300.0 mg/kg/injection, schedule: Q04DX003 (sc), vehicle: water
  T/C: 150 % of control
dose: 300.0 mg/kg/injection, schedule: Q## X009 (sc), vehicle: water
  T/C: 218 % of control
dose: 400.0 mg/kg/injection, schedule: Q01DX009 (ip), vehicle: water
  T/C: 177 % of control
dose: 400.0 mg/kg/injection, schedule: Q01DX009 (sc), vehicle: water
  T/C: 200 % of control and 209 % of control and 304 % of control
dose: 500.0 mg/kg/injection, schedule: Q01DX014 (sc), vehicle: water
  T/C: 163 % of control
dose: 500.0 mg/kg/injection, schedule: Q01DX015 (sc), vehicle: water
  T/C: 211 % of control and 233 % of control
dose: 600.0 mg/kg/injection, schedule: Q01DX008 (sc), vehicle: water
  T/C: 172 % of control and 180 % of control
dose: 600.0 mg/kg/injection, schedule: Q01DX009 (oral), vehicle: water
  T/C: 155 % of control
dose: 600.0 mg/kg/injection, schedule: Q04DX003 (sc), vehicle: water
  T/C: 170 % of control
dose: 800.0 mg/kg/injection, schedule: Q01DX009 (ip), vehicle: water
  T/C: 122 % of control
dose: 800.0 mg/kg/injection, schedule: Q01DX009 (sc), vehicle: water
  T/C: 88 % of control
dose: 800.0 mg/kg/injection, schedule: Q## X009 (sc), vehicle: water
  T/C: 88 % of control
dose: 1200.0 mg/kg/injection, schedule: Q01DX009 (oral), vehicle: water
  T/C: 100 % of control
dose: 1200.0 mg/kg/injection, schedule: Q04DX003 (sc), vehicle: water
  T/C: 195 % of control
dose: 1600.0 mg/kg/injection, schedule: Q01DX001 (sc), vehicle: water
  T/C: 150 % of control and 157 % of control
dose: 2400.0 mg/kg/injection, schedule: Q01DX001 (sc), vehicle: water
  T/C: 150 % of control
dose: 2400.0 mg/kg/injection, schedule: Q03HX008 (sc), vehicle: water
  T/C: 90 % of control
